Common to all, as to experiment: DTP human tumour cell line panel, 48 h
For assay [1], the system named is K-562 leukemia.
The subject of assay [2] is HOP-62 NSCLC.
Assay [3] has as its system SK-MEL-2 melanoma.
Assay [4] concerns EKVX NSCLC.
Assay [5] has as its system UACC-62 melanoma.
For assay [6], the system named is MALME-3M melanoma.
The subject of assay [7] is SNB-19 CNS.
The test system of assay [8] is SW-620 colon.
Assay [9] concerns MOLT-4 leukemia.
Assay [10] has as its system RXF 393 renal.

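The compound was tested at five concentrations on cells cultured in 96-well plates, with a 48-hour exposure period. At the TGI there is no net growth.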

By TGI is commonly meant the concentration giving total growth inhibition. High values mean less potent growth arrest, low ones more potent growth arrest. For the molecule `COP(=O)(OC)C(N)CCSC` (configuration not stated), the TGI in [1], in assay [2], in [3], in assay [4], in [5] and in [6] was over 100 µM throughout. Further, the TGI in assay [7], in [8] and in [9] was over 100 µM in each case.

In the case of `COC(=O)c1ccc(-c2nc(C#N)c(N)o2)cc1`, the TGI in assay [1], in assay [2], in [3], in [4], in assay [10] and in assay [6] was over 100 µM in each case. The TGI in [7], in assay [8] and in assay [9] was over 100 µM in each case.

For `O=C(c1ccccc1)c1c(C(F)(F)F)n([O-])c2ccccc2[n+]1=O`, the TGI is over 100 µM in assay [2]; 3.43 µM in assay [3]; 6.04 µM in assay [4]; 3.83 µM in [10]; 3.52 µM in assay [5]; 3.23 µM in assay [7]. Also, the TGI in [8] was over 100 µM; in assay [9] it was 0.516 µM.

For the molecule `CC(=O)/C=C/C=C(\C)CC/C=C(\C)CC(C)C`, the TGI is 56.8 µM in [1]; over 100 µM in assay [2]; 42.3 µM in assay [3]; over 100 µM in [4]; 30.3 µM in assay [10]; 49.2 µM in assay [5]. Moreover, the TGI was over 100 µM in assay [7], 35.3 µM in [8] and 41.9 µM in [9].

On to `C/C(O)=C(\C=N\C(N)=S)C(=O)Nc1ccccc1C`, for which the TGI in [1], in assay [2], in assay [3], in assay [4], in assay [10] and in [5] was over 100 µM throughout. Also, the TGI in assay [7], in assay [8] and in assay [9] was over 100 µM in each case.

On to `COc1cc(C2C3=C(CCC3=O)Oc3cc4c(cc32)OCO4)cc(OC)c1OC` (configuration not stated), for which the TGI in assay [1] is over 100 µM; in assay [2] it was 0.742 µM; in assay [4] it was over 100 µM; in [10], over 100 µM; in assay [5] it was over 100 µM; in [6], over 100 µM. For the same molecule, the TGI in assay [7] and in assay [8] was over 100 µM in each case.

As to `Cc1c2c3cc(O)ccc3nc-2n(C)c2ccccc12`, the TGI in [1] amounted to 7.5 µM; in [2], 7.99 µM; in assay [4] it was 6.91 µM; in [10], 2.86 µM; in [5] it was 3.21 µM; in [6], 3.44 µM. The figures for the TGI in assay [7], in assay [8] and in assay [9] were 15.1 µM, 2.7 µM and 3.32 µM, respectively.

Regarding `Cc1ccc(C(=O)N(C(C)C)C(C)C)cc1N=NN(C)C`, the TGI in assay [1], in assay [2], in assay [3], in assay [4], in [5] and in assay [6] was over 100 µM throughout. The TGI in assay [7], in assay [8] and in assay [9] was over 100 µM each time.

Turning to `COc1ccc(/C=C2\Cc3ccccc3C2=O)cc1OC`, the TGI in assay [1], in assay [2], in [3], in assay [4], in assay [5] and in assay [6] was over 100 µM in each case. Also, the TGI in assay [7], in [8] and in [9] was over 100 µM each time.

As for `OCC1OC(n2cnc3cccnc32)CC1O` (configuration not stated), the TGI in [1], in [2], in [3], in assay [4], in assay [10] and in [5] was over 100 µM in each case. For the same molecule, the TGI in [7], in [8] and in [9] was over 100 µM each time.

For `CC1(O)C=CC2CCC1C2O` (configuration not stated), the TGI in assay [1], in assay [2], in assay [3], in [4], in [10] and in [5] was over 100 µM each time. The TGI in assay [6], in [7] and in assay [9] was over 100 µM each time.

As to `C=CCC(CNC(=O)OCc1ccccc1)O[Si](C)(C)C(C)(C)C` (configuration not stated), the TGI is over 100 µM in assay [1]; over 100 µM in [2]; 34.9 µM in assay [3]; 74.9 µM in assay [4]; 47.6 µM in [10]; over 100 µM in [5]. In addition, the TGI is over 100 µM in [7], over 100 µM in [8] and 70.1 µM in assay [9].

For the molecule `CC(NC(=O)/C(=C/c1ccccc1O)NC(=O)c1ccccc1)C(=O)O` (configuration not stated), the TGI in assay [1] is over 100 µM; in assay [4], 88.2 µM; in assay [10], 57.6 µM; in assay [5], over 100 µM; in [6], over 100 µM; in assay [7], 55.2 µM. For the same molecule, the TGI in [8] and in assay [9] was over 100 µM throughout.

`Cc1csc2c1C(=O)c1ccsc1C2=O`: the TGI is over 25.6 µM in assay [1]; 4.51 µM in assay [3]; 20 µM in assay [4]; 11.8 µM in assay [10]; 3.07 µM in assay [5]; 1.07 µM in assay [6]. The TGI was 9.98 µM in assay [7], 5.31 µM in assay [8] and 27.2 µM in assay [9].

On to `N#Cc1c(Nc2ccc(F)cc2)[n+]([O-])c2ccc(Cl)cc2[n+]1[O-]`, for which the TGI in assay [1] was 8.56 µM; in assay [2] it was 42.2 µM; in assay [3], 77.9 µM; in assay [10], 27.3 µM; in [5], 17.2 µM; in assay [6], over 100 µM. In addition, the values for the TGI in assay [7], in assay [8] and in [9] were over 100 µM, over 100 µM and 9.09 µM, respectively.

Values taken from PubChem BioAssay (NCI).
